{
  "source": "patent US10670566B2",
  "about": "“Rapid antimicrobial susceptibility testing using piezoelectric sensor” (Drexel University, priority 2015, dated 2020)",
  "key": {"[1]": {"experiment": "pH of ampicillin solution measured using pH paper", "assay_type": "physicochemical", "details": "1 mg/ml"}, "E. coli [2]": {"test_system": "E. coli", "experiment": "Antimicrobial susceptibility testing using PZT piezoelectric plate sensor (width mode resonance peak)", "assay_type": "cell-based", "method": "After the PZT sensor was insulated with MPS and coated with APS, it was immersed in 5 ml of DI water to monitor the stability of width mode frequency peak for more than 30 min. If the peak was symmetric and stable, the sensor could be used for the antimicrobial testing.\nE. coli suspension in broth was prepared. The concentration was about 10^9 cells/mi. The following procedure was used to replace the broth with DI water, since the ions in the broth might affect the spectrum of the sensor. The suspension was centrifuged at 3000 rpm/min for 5 min and the supernatant was removed. 5 mL of DI water was then added to the tube and the E. coli was re-suspended in DI water.\nFor the first a few tests (Tests 1-3), a drop of E. coli suspension (20 μl) was put on the sensor surface. After 10 min, the sensor was washed with 400 ml of DI water in a glass beaker 3 times to remove the unbound bacteria. The sensor was then returned to 5 ml of DI water and its width mode peak was monitored. In Test 4, instead of putting a drop of suspension on the sensor, the sensor was soaked in the E. coli suspension for 10 min. The washing step for Test 4 was the same as mentioned above.\nAfter the sensor with E. coli was monitored for 5-10 min, various amounts of ampicillin were added to the DI water every 5 min to determine whether the antibiotics would have an effect on the frequency peak. For Test 1, 1 mg/ml ampicillin solution was made. Different volumes of the ampicillin solution ([…]) were added to the 5 ml of DI water to make the final concentrations of the ampicillin 1, 2, 4, 8, 16, and 32 μg/ml. In Tests 2-4 20 μl of ampicillin solutions of different concentrations (0.25, 0.25, 0.5, 1, 2, and 4 mg/ml) were added each time to make the final concentration of the ampicillin to 1, 2, 4, 8, 16, and 32 μg/ml.\nTo characterize the roundness of the peak shape, the raw data was smoothed first (as shown in FIG. 15. The amount of variation of the raw data from the smoothed data was calculated as the standard deviation (SD) of the raw data. The width of the top of the peak could be found when the phase angle was 1 times SD (or 2 times SD) smaller than the maximum phase angle in smoothed data. The more round the peak was, the smaller the width of the top of the peak would be. On the other hand, the more flat the peak was, the larger the width of the top of the top of the peak would be."}, "E. coli [3]": {"test_system": "E. coli", "details": "known MIC for the E. coli strain tested; cited from earlier work"}},
  "data": [
    {"smiles": "CC1(C)S[C@@H]2[C@H](NC(=O)[C@H](N)c3ccccc3)C(=O)N2[C@H]1C(=O)O", "note": "[ampicillin]", "values": [
      {"measurement": "pH value of the ampicillin solution", "setting": "[1]", "result": 3},
      {"measurement": "change of SD of peak frequency after adding ampicillin, compared to the SD with E. coli", "setting": "E. coli [2]; Test 1", "result": "decreased a lot"},
      {"measurement": "ampicillin concentration at which the SD of the peak frequency reached its minimal point", "setting": "E. coli [2]; Test 1 (results similar in Tests 2 and 3), E. coli on sensor in DI water, ampicillin 1-32 μg/ml added every 5 min", "result": 8, "unit": "µg/mL"},
      {"measurement": "change of width of the top of the peak after adding ampicillin", "setting": "E. coli [2]; Test 4, different sensor, pH adjusted ampicillin, sensor soaked in E. coli suspension", "result": "decreased"},
      {"measurement": "change of width of the top of the peak after adding ampicillin", "setting": "E. coli [2]; Tests 1-3", "result": "started to decrease"},
      {"measurement": "minimal inhibitory concentration (MIC)", "setting": "E. coli [3]", "result": 8, "unit": "µg/mL"}
    ]}
  ]
}
